Counter-ions that a name gives are not always drawn. Like-named read-outs stand apart in the source and are kept apart here.
Legend:
human plasmin = human plasmin (Homo sapiens, UniProt P00747); experiment: biochemical; details: 30 minute incubation
Description: (§1) The ability of compounds of the present invention to act as a selective inhibitor of thrombin catalytic activity was assessed by determining the concentration of compound which inhibited the activity of this enzyme by 50%, (IC50), and comparing this value to that determined for all or some of the following related serine proteases: recombinant tissue plasminogen activator (rt-PA), plasmin, activated protein C, chymotrypsin, factor Xa and trypsin.
(§2) The buffer used for all assays was HBSA (10 mM HEPES, pH 7.5, 150 mM sodium chloride, 0.1% bovine serum albumin).
(§3) The assay for IC50 determinations was conducted by combining in appropriate wells of a Corning microtiter plate, 50 microliters of HBSA, 50 microliters of the test compound at a specified concentration (covering a broad concentration range) diluted in HBSA (or HBSA alone for VO (uninhibited velocity) measurement), and 50 microliters of the enzyme diluted in HBSA. Following a 30 minute incubation at ambient temperature, 50 microliters of the substrate at the concentrations specified below were added to the wells, yielding a final total volume of 200 microliters. The initial velocity of chromogenic substrate hydrolysis was measured by the change in absorbance at 405 nm using a Thermo Max® Kinetic Microplate Reader over a 5 minute period in which less than 5% of the added substrate was utilized. The concentration of added inhibitor which caused a 50% decrease in the initial rate of hydrolysis was defined as the IC50 value.
Plasmin catalytic activity was determined using the chromogenic substrate, S-2366 [L-pyroglutomyl-L-prolyl-L-arginine-p-nitroaniline hydrochloride], which was obtained from Pharmacia-Upjohn. The substrate was made up in deionized water followed by dilution in HBSA prior to the assay in which the final concentration was 300 micromolar (about 2.5-times Km). Purified human plasmin was obtained from Enzyme Research Laboratories, Inc. The enzyme was diluted into HBSA prior to assay in which the final concentration was […].

human alpha thrombin = target: T1, human alpha thrombin (Homo sapiens, UniProt P00734); experiment: Thrombin (fIIa) IC50 assay, chromogenic substrate Pefachrome t-PA; format: biochemical
T1 construct: Purified human alpha-thrombin; purchased Enzyme Research Laboratories, Inc
Description: as §1, §2, §3
Enzyme activity was determined using the chromogenic substrate, Pefachrome t-PA (CH3SO2-D-hexahydrotyrosine-glycyl-L-Arginine-p-nitroaniline, obtained from Pentapharm Ltd.). The substrate was reconstituted in deionized water prior to use. Purified human a-thrombin was obtained from Enzyme Research Laboratories, Inc. The buffer used for all assays was HBSA (10 mM HEPES, pH 7.5, 150 mM sodium chloride, 0.1% bovine serum albumin).
IC50 determinations were conducted where HBSA ([…]), a-thrombin (50 μl) and inhibitor (50 μl) (covering a broad concentration range), were combined in appropriate wells and incubated for 30 minutes at room temperature prior to the addition of substrate Pefachrome-t-PA (50 μl). The initial velocity of Pefachrome t-PA hydrolysis was measured by the change in absorbance at 405 nm using a Thermo Max® Kinetic Microplate Reader over a 5 minute period in which less than 5% of the added substrate was utilized. The concentration of added inhibitor which caused a 50% decrease in the initial rate of hydrolysis was defined as the IC50 value.

Human rt-PA (Activase) = target: T2, Human rt-PA (Activase) (Homo sapiens, UniProt P00750); experiment: biochemical; details: 30 minute incubation
T2 construct: purchased Genentech Inc
Description: as §1, §2, §3
Recombinant Tissue Plasminogen Activator (rt-PA) Assay
rt-PA catalytic activity was determined using the substrate, Pefachrome t-PA (CH3SO2-D-hexahydrotyrosine-glycyl-L-arginine-p-nitroaniline, obtained from Pentapharm Ltd.). The substrate was made up in deionized water followed by dilution in HBSA prior to the assay in which the final concentration was 500 micromolar (about 3-times Km). Human rt-PA (Activase®) was obtained from Genentech Inc. The enzyme was reconstituted in deionized water and diluted into HBSA prior to the assay in which the final concentration was 1.0 nM.

human aPC = target: T3, human aPC (Homo sapiens, UniProt P04070); experiment: biochemical; details: 30 minute incubation; for IC50: read-out: aPC (IC50) (Table 3A)
T3 construct: purchased Hematologic Technologies, Inc
Description: as §2
Following a 30 minute incubation at ambient temperature, 50 microliters of the substrate at the concentrations specified below were added to the wells, yielding a final total volume of 200 microliters.
Activated Protein C (aPC) Assay
aPC catalytic activity was determined using the chromogenic substrate, Pefachrome PC (delta-carbobenzloxy-D-lysine-L-prolyl-L-arginine-p-nitroaniline dihydrochloride), obtained from Pentapharm Ltd.). […] Purified human aPC was obtained from Hematologic Technologies, Inc. The enzyme was diluted into HBSA prior to assay in which the final concentration was 1.0 nM.

[1] = test system: clot formation on silk thread in A-V shunt; experiment: Multiple extracorporeal (A-V) shunt model in rats utilizing oral dosing; format: in vivo; details: rat, read-out: ED50 value (dose that reduced the clot size by 50%)
Description: The compounds of Example 10 and 143 were evaluated in a multichamber A-V shunt model in rats. The A-V shunt model is one of the most common and generally used systems to evaluate antithrombotic compounds: Smith, J. R. and White, A. M. Br. J. Pharmacol., 77: 29-38 (1982). In this model a localized clot made up of primarily fibrin with some platelet and macrophage involvement (Shand, R. A. and Smith, J. R. and Wallis, R. B. Thromb. Res., 36: 223-232 (1984)), is formed on an artificial thrombogenic surface (typically a segment of silk or cotton thread) contained in a sialstic chamber which is part of an exteriorized shunt between the carotid artery and jugular vein. The procedure described in this Example is a modified A-V shunt model that allows for oral dosing of test agents and subsequent evaluation of efficacy over a two to three hour window in time.
Briefly, male Harlan Sprague Dawley rats (420-450 g) were acclimated at least 72 hours prior to use. The animals were fasted for 12 hours prior to surgery with free access to water. Unanesthetized animals were grouped into three or four dosage groups (six or seven animals per group) and administered test agents orally via gavage needle, at doses of 1.0, 3.0, 10 and 50 mg/kg for the compound of Example 10, and 3.0, 10 and 30 mg/kg for the Compound of Example 143. Immediately after oral dosing, animals were anesthetized with sodium pentobarbital (Nembutal) given intraperitoneally at a dose of 50 mg/kg body weight, and placed on a isothermal pad to maintain body temperature. The level of anesthesia was monitored every 15 minutes by neuro-response to a tail pinch, respiration and core temperature. The desired depth of surgical anesthesia was maintained by administering subsequent doses (5 mg/kg) intravenously. The left femoral artery was catheterized using standard procedures for blood pressure monitoring and blood sampling, with polyethylene tubing (PE50). The left femoral vein was catheterized with PE50 tubing for delivery of anethestic.
The exteriorized shunts were assembled by connecting two pieces of saline filled 12.5 cm PE90 tubing with a 6 cm piece of PE160 tubing containing a 6 cm piece of silk suture size 3 and clamped with hemostats. A small 0.5 cm portion of the silk thread protrudes from the junction of the chamber with the shunt. The left jugular vein and right carotid artery were catheterized with the ends of the PE90 shunt. The shunt was unclamped and blood allowed to flow from the carotid artery, through the chamber, and exit the shunt via the jugular vein. After 15 minutes, both sides of the chamber were clamped and the suture containing the clot removed following detachment of the arterial end of the chamber. The clot was immediately weighed and recorded. This procedure takes place at predetermined intervals (60, 90, 120, and 150 minutes after oral dosing) to allow assessment of efficacy over a large window in time. Four shunts were placed with flow initiated at 45, 75, 105, and 135 minutes after oral compound administration. Clot weight from the four shunts was the primary endpoint of the protocol. Blood pressure, heart rate core temperature and respiration were monitored continuously. Following termination of the experiment the animals were euthanized with a 120 mg/kg dose of Nembutal. One experiment was performed per animal.
ED50 values were calculated at 60, 90, 120, and 150 minutes after oral dosing of test compound. ED50 is that dose that reduced the clot size by 50%. […]

[2] = read-out: Plasmin (IC50) (Table 3A)
[3] = read-out: rt-PA (IC50) (Table 3A)
[4] = read-out: Plasmin IC50 (Table 3B)

T3 sequence (P04070 43-197): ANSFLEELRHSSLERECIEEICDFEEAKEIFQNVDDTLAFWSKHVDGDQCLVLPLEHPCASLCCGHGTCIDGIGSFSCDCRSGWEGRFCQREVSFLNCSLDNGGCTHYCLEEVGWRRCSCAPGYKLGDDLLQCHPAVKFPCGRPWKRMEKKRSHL
T3 sequence (P04070 212-461): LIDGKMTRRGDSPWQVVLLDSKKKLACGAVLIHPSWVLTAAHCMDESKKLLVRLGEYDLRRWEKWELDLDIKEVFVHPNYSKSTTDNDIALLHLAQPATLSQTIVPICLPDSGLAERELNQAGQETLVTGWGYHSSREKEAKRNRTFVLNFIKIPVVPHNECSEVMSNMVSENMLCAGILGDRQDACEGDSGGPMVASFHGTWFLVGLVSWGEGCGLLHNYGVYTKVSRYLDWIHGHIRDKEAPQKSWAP
T2 sequence (P00750 36-562): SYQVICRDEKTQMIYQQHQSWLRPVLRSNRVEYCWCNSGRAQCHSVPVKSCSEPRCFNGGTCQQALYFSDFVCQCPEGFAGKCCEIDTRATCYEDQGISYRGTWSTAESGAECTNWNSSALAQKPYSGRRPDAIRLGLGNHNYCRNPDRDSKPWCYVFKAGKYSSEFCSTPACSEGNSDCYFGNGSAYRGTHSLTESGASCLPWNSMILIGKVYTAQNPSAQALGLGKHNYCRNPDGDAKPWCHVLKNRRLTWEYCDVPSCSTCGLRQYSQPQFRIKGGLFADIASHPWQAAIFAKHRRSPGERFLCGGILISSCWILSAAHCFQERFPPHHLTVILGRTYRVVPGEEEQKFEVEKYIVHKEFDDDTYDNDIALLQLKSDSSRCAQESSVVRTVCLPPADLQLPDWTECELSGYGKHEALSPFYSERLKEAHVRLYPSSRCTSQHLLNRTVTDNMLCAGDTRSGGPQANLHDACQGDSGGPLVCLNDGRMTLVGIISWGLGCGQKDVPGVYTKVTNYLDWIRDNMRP
Chain of human plasmin (P00747 97-580): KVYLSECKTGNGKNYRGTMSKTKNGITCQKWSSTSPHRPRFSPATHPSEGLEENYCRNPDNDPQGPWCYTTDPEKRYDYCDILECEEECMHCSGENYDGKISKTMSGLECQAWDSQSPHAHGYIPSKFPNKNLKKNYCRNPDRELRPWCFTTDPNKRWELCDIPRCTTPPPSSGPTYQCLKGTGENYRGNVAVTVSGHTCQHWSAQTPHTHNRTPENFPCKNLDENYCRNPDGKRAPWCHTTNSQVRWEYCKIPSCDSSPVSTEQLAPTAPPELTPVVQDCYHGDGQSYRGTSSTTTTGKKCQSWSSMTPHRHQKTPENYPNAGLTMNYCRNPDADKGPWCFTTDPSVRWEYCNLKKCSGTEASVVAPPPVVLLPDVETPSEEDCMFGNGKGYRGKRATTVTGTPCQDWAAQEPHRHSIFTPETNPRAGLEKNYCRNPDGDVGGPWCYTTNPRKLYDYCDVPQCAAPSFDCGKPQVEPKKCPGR
Chain of human plasmin (P00747 581-810): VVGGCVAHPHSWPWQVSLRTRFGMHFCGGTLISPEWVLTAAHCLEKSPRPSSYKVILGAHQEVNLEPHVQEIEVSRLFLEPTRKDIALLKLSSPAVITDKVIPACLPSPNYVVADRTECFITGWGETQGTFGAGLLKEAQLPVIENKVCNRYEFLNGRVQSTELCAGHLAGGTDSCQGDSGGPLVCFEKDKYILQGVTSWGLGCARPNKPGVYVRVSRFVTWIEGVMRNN

| Compound | IC50 (human plasmin; [2]) [nM] | IC50 (human alpha thrombin) [nM] | IC50 (Human rt-PA (Activase); [3]) [nM] | IC50 (human aPC) [nM] | IC50 (human plasmin; [4]) [nM] | aPC IC50 (Table 3B) (human aPC) | other results |
| --- | --- | --- | --- | --- | --- | --- | --- |
| COc1ccc(Cl)cc1S(=O)(=O)Nc1cccn(CC(=O)NC(C=O)CCCNC(=N)N)c1=O [2-OMe, 5-Cl-phenyl, (5-chloro-2-methoxy-phenylsulfonyl-3-amino-2-oxo-1,2-dihydropyridyl)acetyl-L-Argininal, trifluoroacetate salt] | > 2500 | 1.16 | > 2500 | > 2500 | – | – | – |
| Cc1ccccc1S(=O)(=O)Nc1cccn(CC(=O)N[C@H](C=O)CCCNC(=N)N)c1=O [Compound 2-Me-phenyl, [3-(2-methylphenyl)sulfonylamino-2-oxo-1,2-dihydropyridyl]acetyl-L-argininal] | > 2500 | 1.4 | > 2500 | > 2500 | – | – | – |
| Cc1ccc(F)cc1S(=O)(=O)Nc1cccn(CC(=O)N[C@H](C=O)CCCNC(=N)N)c1=O [2-Me, 5-F-phenyl, [3-(2-methyl-5-fluorophenyl)sulfonylamino-2-oxo-1,2-dihydro-pyridyl]acetyl-L-argininal] | > 2500 | 1.97 | > 2500 | > 2500 | – | – | – |
| N=C(N)NCCC[C@@H](C=O)NC(=O)Cn1cccc(NS(=O)(=O)c2ccccc2C(F)(F)F)c1=O [Compound 2-CF3-phenyl] | > 2500 | 5.6 | > 2500 | > 2500 | – | – | – |
| N=C(N)NCCC[C@@H](C=O)NC(=O)Cn1cccc(NS(=O)(=O)Cc2ccccc2F)c1=O [Compound 121J] | – | 0.763 | – | – | > 2500 | inactive | IC50 (Human rt-PA (Activase); read-out: rtPA IC50 (Table 3B)): > 2500 nM |
| N=C(N)NCCCC(C=O)NC(=O)Cn1cccc(NS(=O)(=O)Cc2ccccc2F)c1=O (stereo not drawn) [Compound 121J] | – | – | – | – | – | – | ED50 ([1]; 1 h, 60 min after oral dose): 22 mg/kg; ED50 ([1]; 1.5 h, 90 min after oral dose): 20 mg/kg; ED50 ([1]; 2 h, 120 min after oral dose): 24 mg/kg; ED50 ([1]; 150 min after oral dose): 28 mg/kg |
| N=C(N)NCCC[C@@H](C=O)NC(=O)Cn1cccc(NS(=O)(=O)Cc2cccc(F)c2)c1=O [Compound 121K] | – | 0.882 | – | – | > 2500 | inactive | rtPA IC50 (Table 3B) (Human rt-PA (Activase)): inactive |
| N=C(N)NCCC[C@@H](C=O)NC(=O)Cn1cccc(NS(=O)(=O)c2ccccc2N)c1=O [Compound 2-NH2phenyl, [3-(2-aminophenyl)sulfonylamino-2-oxo-1,2-dihydropyridyl]acetyl-L-argininal] | > 2500 | 3.7 | > 2500 | > 2500 | – | – | – |
| COc1ccc(OC)c(S(=O)(=O)Nc2cccn(CC(=O)N[C@H](C=O)CCCNC(=N)N)c2=O)c1 [Compound 121E, [3-(2,5-dimethoxyphenyl)sulfonylamino-2-oxo-1,2-dihydropyridyl]acetyl-L-argininal] | – | 0.597 | – | – | > 2500 | inactive | rtPA IC50 (Table 3B) (Human rt-PA (Activase)): inactive |

Source: patent US6342504B1, “Aromatic heterocyclic derivatives as enzyme inhibitors” (priority 1994, dated 2002)
